Measurements taken from patent US10160738B2, “Neuroactive substituted cyclopent[a]anthracenes as modulators for GABA type-A receptors” (priority 2013, dated 2018).
Read-outs that look alike come from different tables or passages of the source.

How the values were obtained:
[1] = molecular target: picrotoxin binding site on GABAA receptors; assay: [35S]-TBPS displacement (inhibition of [35S]-TBPS binding); settings: non-competitive displacement; duplicate experiments in triplicate; ± SEM
Experimental: The IC50 values for non-competitive displacers of [^35S]-TBPS from the picrotoxin binding site on GABAA receptors are reported in Table 1.
Results presented are from duplicate experiments performed in triplicate. Error limits are calculated as standard error of the mean. Methods used are known in the art (see Jiang, X., et al., Neurosteroid analogues. 9. Conformationally constrained pregnanes: structure-activity studies of 13,24-cyclo-18,21-dinorcholane analogues of the GABA modulatory and anesthetic steroids (3α,5α)- and […]. J. Med. Chem., 46: 5334-48 (2003)—the contents of which are hereby incorporated by reference in their entirety).

[2] = molecular target: T1, rat α1β2γ2L type GABAA receptors expressed in Xenopus laevis oocytes (Rattus norvegicus, UniProt P18508+P62813+P63138, INS375LLRMFSFK); assay: Potentiation of GABA-mediated chloride currents, oocyte electrophysiology; format: cell-based; settings: ± SEM; for Oocyte electrophysiology (gating) 10 μM: direct current gated by 10 μM compound in absence of GABA, ratio compound only current/2 μM GABA current; for Oocyte electrophysiology 0.1 μM: ratio of currents in presence/absence of 0.1 μM compound; for Oocyte electrophysiology 0.1 μM / Oocyte electrophysiology 1.0 μM / Oocyte electrophysiology 10 μM: 2 μM GABA, N≥4; for Oocyte electrophysiology 1.0 μM: ratio of currents in presence/absence of 1.0 μM compound; for Oocyte electrophysiology 10 μM: ratio of currents in presence/absence of 10 μM compound
T1 construct: expressed in transfected cells; host or cells: Xenopus laevis oocytes
T1 sequence (P62813 28-455, stated change not applied): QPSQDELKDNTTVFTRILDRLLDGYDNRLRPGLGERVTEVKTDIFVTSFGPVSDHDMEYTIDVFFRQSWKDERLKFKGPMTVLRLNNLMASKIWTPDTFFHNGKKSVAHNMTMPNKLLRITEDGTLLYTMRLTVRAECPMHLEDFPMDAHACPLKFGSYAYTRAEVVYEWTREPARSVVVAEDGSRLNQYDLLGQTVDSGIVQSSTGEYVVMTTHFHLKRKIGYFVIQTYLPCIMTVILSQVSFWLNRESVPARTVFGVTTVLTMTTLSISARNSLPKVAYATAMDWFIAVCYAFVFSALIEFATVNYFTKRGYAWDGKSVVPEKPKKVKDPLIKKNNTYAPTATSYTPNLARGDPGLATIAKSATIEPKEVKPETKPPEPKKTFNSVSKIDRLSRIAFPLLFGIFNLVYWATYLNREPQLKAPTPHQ
T1 sequence (P63138 26-474, stated change not applied): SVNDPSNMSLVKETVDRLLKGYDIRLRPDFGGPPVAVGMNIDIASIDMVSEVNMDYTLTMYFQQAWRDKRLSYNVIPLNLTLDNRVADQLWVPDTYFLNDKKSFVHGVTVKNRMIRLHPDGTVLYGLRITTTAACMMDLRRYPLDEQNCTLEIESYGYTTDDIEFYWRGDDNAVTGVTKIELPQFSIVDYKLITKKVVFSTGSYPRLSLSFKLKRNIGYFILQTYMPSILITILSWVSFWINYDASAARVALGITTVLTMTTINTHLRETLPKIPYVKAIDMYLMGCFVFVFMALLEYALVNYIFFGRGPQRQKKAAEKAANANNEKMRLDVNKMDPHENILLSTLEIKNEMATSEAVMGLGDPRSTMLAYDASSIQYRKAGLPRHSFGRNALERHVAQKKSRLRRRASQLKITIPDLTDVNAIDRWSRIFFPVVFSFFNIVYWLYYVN
T1 sequence (P18508 with tags, fused parts or gaps INS375LLRMFSFK): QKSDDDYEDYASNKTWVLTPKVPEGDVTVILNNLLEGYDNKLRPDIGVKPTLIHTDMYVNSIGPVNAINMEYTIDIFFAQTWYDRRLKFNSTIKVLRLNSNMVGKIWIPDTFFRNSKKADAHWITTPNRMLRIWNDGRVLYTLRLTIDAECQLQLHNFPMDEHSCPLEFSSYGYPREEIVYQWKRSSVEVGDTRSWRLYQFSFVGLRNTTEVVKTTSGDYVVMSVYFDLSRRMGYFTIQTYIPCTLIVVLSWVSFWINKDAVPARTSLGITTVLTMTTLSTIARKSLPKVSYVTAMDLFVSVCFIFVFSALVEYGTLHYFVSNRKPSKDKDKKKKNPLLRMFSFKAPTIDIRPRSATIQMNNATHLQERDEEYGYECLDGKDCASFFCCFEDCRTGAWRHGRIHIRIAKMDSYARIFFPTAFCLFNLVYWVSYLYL
Experimental: The compounds of the present disclosure were evaluated for the ability to potentiate chloride currents mediated by 2 μM GABA at rat α1β2γ2L type GABAA receptors expressed in Xenopus laevis oocytes and the results are shown in Table 2.
The GABA concentration used for the control response was 2 μM. Each compound was evaluated on at least four different oocytes at the concentrations indicated, and the results reported are the ratio of currents measured in the presence/absence of added compound. Gating represents direct current gated by 10 μM compound in the absence of GABA, and this current is reported as the ratio of compound only current/2 μM GABA current. Error limits are calculated as standard error of the mean (N≥4). Methods used are known in the art (see Jiang, X., et al.).

[3] = tested on: tadpole; assay: Tadpole loss of righting reflex (LRR) and loss of swimming reflex (LSR); format: in vivo; settings: ± SEM
Experimental: Table 3 discloses the anesthetic effects of the compounds of the present disclosure. In particular, the anesthetic effect of the compounds of the present disclosure on Loss of Righting Reflex (LRR) and Loss of Swimming Reflex (LSR).
Methods used are known in the art (see Jiang, X., et al.). Error limits are calculated as standard error of the mean (N=10 or more animals at each of five or more different concentrations).

[4] = loss of righting reflex, read-out: Tadpole LRR EC50
[5] = loss of swimming reflex, read-out: Tadpole LSR EC50

| SMILES | IC50 [1] [nM] | Oocyte electrophysiology (gating) 10 μM [2] | Oocyte electrophysiology 0.1 μM [2] | Oocyte electrophysiology 1.0 μM [2] | Oocyte electrophysiology 10 μM [2] | EC50 [3, 4] [nM] | EC50 [3, 5] [nM] | melting point [°C] | Tadpole LSR EC50 ([3]; loss of swimming reflex) |
| --- | --- | --- | --- | --- | --- | --- | --- | --- | --- |
| C[C@@]12CC[C@H]3C[C@H]4C[C@H](O)CC[C@@H]4C[C@@H]3[C@H]1CC=C2C#N [MQ-81, (3aR,5aS,6aS,8R,10aR,11aS,11bR)-8-Hydroxy-3a-methyl-3a,4,5,5a,6,6a,7,8,9,10,10a,11,11a,11b-Tetradecahydro-1H-cyclopent[a]anthracene-3-carbonitrile] | 174 ± 14 | 0.09 ± 0.01 | 1.37 ± 0.14 | 5.69 ± 0.17 | 18.39 ± 0.70 | 770 ± 40 | 1730 ± 40 | 165 to 167 | – |
| C[C@]12CC[C@@H]3C[C@@H]4C[C@@H](O)CC[C@H]4C[C@H]3[C@@H]1CC[C@@]21CO1 [MQ-75, (2′S,3S,3aS,5aR,6aR,8S,10aS,11aR,11bS)-Hexadecahydro-3a-methyl-spiro[3H-cyclopent[a]anthracene-3,2′-oxiran]-8-ol] | 226 ± 2 | 0.13 ± 0.04 | 1.36 ± 0.03 | 7.67 ± 0.71 | 18.86 ± 1.99 | 260 ± 40 | 950 | 140 to 142 | – |
| C[C@@]12CC[C@H]3C[C@H]4C[C@H](O)CC[C@@H]4C[C@@H]3[C@H]1CC(=O)C2 [MQ-82, (3aS,5aS,6aS,8R,10aR,11aS,11bR)-8-Hydroxy-3a-methyl-hexadecahydro-2H-cyclopenta[a]anthracen-2-one] | 2680 | 0.19 ± 0.17 | 0.80 ± 0.04 | 0.83 ± 0.06 | 2.43 ± 0.34 | 3110 ± 10 | 7930 | 145 to 147 | – |
| C[C@]12CC[C@@H]3C[C@@H]4C[C@@H](O)CC[C@H]4C[C@H]3[C@@H]1CC[C@@H]2C#N [MQ-77, (3S,3aS,5aR,6aR,8S,10aS,11aR,11bS)-Hexadecahydro-8-hydroxy-3a-methyl-cyclopent[a]anthracene-3-carbonitrile] | 400 ± 118 | 0.02 ± 0.09 | 1.03 ± 0.10 | 3.65 ± 0.39 | 14.80 ± 1.53 | 590 ± 70 | 1730 ± 40 | – | – |
| C[C@]12CC[C@@H]3C[C@@H]4C[C@@H](O)CC[C@H]4C[C@H]3[C@@H]1CCC2=O [MQ-74, (3aS,5aR,6aR,8S,10aS,11aR,11bS)-Hexadecahydro-8-hydroxy-3a-methyl-cyclopent[a]anthracen-3-one] | 1190 | −0.01 ± 0.04 | 0.80 ± 0.06 | 1.00 ± 0.0 | 3.88 ± 0.56 | 3220 ± 30 | > 10000 | 152 to 154 | – |
| C[C@]12CC[C@@H]3C[C@@H]4C[C@@H](O)CC[C@H]4C[C@H]3[C@@H]1CC=C2C#N [MQ-76, (3aS,5aR,6aR,8S,10aS,11aR,11bS)-8-Hydroxy-3a-methyl-3a,4,5,5a,6,6a,7,8,9,10,10a,11,11a,11b-Tetradecahydro-1H-cyclopent[a]anthracene-3-carbonitrile] | 574 ± 142 | 0.31 ± 0.30 | 0.95 ± 0.20 | 2.08 ± 0.16 | 9.43 ± 0.77 | 390 ± 10 | 1730 ± 30 | 164 to 166 | – |
| C[C@@]12CC[C@H]3C[C@H]4C[C@H](O)CC[C@@H]4C[C@@H]3[C@H]1CC[C@]21CO1 [MQ-65, (2′R,3R,3aR,5aS,6aS,8R,10aR,11aS,11bR)-Hexadecahydro-3a-methyl-spiro[3H-cyclopent[a]anthracene-3,2′-oxiran]-8-ol] | 251 ± 66 | 0.02 ± 0.0 | 1.27 ± 0.04 | 2.94 ± 0.28 | 6.86 ± 1.34 | 2090 ± 120 | 5480 ± 20 | 143 to 145 | – |
| C[C@@]12CC[C@H]3C[C@H]4C[C@H](O)CC[C@@H]4C[C@@H]3[C@H]1CCC2=O [MQ-64, (3aR,5aS,6aS,8R,10aR,11aS,11bR)-Hexadecahydro-8-hydroxy-3a-methyl-3H-cyclopent[a]anthracen-3-one] | 346 ± 33 | 0.04 ± 0.03 | 0.98 ± 0.02 | 2.21 ± 0.17 | 8.81 ± 1.87 | 3080 ± 10 | – | 152 to 154 | None |
